Tests used:
Carboplatin = compound: C1CC(C1)(C(=O)[O-])C(=O)[O-].N.N.[Pt+2] [Carboplatin]; settings: max 10 µM
Summary of the method: (§1)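 Plates with 1536 wells received cancer cell lines in 7.5 μl of DMEM/F12 or RPMI containing 10% FBS. After 24 hours at 37°C and 5% CO2, cells were dosed for 72 hours with final DMSO typically 0.2%, and viability was read by CellTiter-Glo 2.0 luminescence scaled between blank-well and DMSO-well means. The single-agent IC50 was taken from a logistic fit of the dose responses made with a non-linear mixed effects model, that logistic curve having two parameters.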

AZD5363 = compound: C1CN(CCC1(C(=O)N[C@@H](CCO)C2=CC=C(C=C2)Cl)N)C3=NC=NC4=C3C=CN4 [AZD5363]; settings: max 10 µM
Summary of the method: as §1

AZD1775 = compound: C=CCn1c(=O)c2cnc(Nc3ccc(N4CCN(C)CC4)cc3)nc2n1-c1cccc(C(C)(C)O)n1 [AZD1775]; settings: max 3 µM
Summary of the method: as §1

Trametinib = compound: CC(=O)Nc1cccc(-n2c(=O)n(C3CC3)c(=O)c3c(Nc4ccc(I)cc4F)n(C)c(=O)c(C)c32)c1 [Trametinib]; settings: max 1 µM
Summary of the method: as §1

Paclitaxel = compound: CC(=O)O[C@H]1C(=O)[C@@]2(C)[C@H]([C@H](OC(=O)c3ccccc3)[C@]3(O)C[C@H](OC(=O)[C@H](O)[C@@H](NC(=O)c4ccccc4)c4ccccc4)C(C)=C1C3(C)C)[C@]1(OC(C)=O)CO[C@@H]1C[C@@H]2O [Paclitaxel]; settings: max 3 µM
Summary of the method: as §1

Palbociclib = compound: CC(=O)c1c(C)c2cnc(Nc3ccc(N4CCNCC4)cn3)nc2n(C2CCCC2)c1=O [Palbociclib]; settings: max 10 µM
Summary of the method: as §1

AZD1390 = compound: CC(C)n1c(=O)n(C)c2cnc3cc(F)c(-c4ccc(OCCCN5CCCCC5)nc4)cc3c21 [AZD1390]; settings: max 0.3 µM
Summary of the method: as §1

Venetoclax = compound: CC1(C)CCC(CN2CCN(c3ccc(C(=O)NS(=O)(=O)c4ccc(NCC5CCOCC5)c([N+](=O)[O-])c4)c(Oc4cnc5[nH]ccc5c4)c3)CC2)=C(c2ccc(Cl)cc2)C1 [Venetoclax]; settings: max 1 µM
Summary of the method: as §1

Dasatinib = compound: CC1=C(C(=CC=C1)Cl)NC(=O)C2=CN=C(S2)NC3=CC(=NC(=N3)C)N4CCN(CC4)CCO [Dasatinib]; settings: max 2 µM
Summary of the method: as §1

SG3199 = compound: CC1=CN2[C@@H](C1)C=NC3=CC(=C(C=C3C2=O)OC)OCCCCCOC4=C(C=C5C(=C4)N=C[C@@H]6CC(=CN6C5=O)C)OC [SG3199]; settings: max 0.001 µM
Summary of the method: as §1

AZD2811 = compound: CCN(CCO)CCCOc1ccc2c(Nc3cc(CC(=O)Nc4cccc(F)c4)[nH]n3)ncnc2c1 [AZD2811]; settings: max 1 µM
Summary of the method: as §1

SN-38 = compound: CCc1c2c(nc3ccc(O)cc13)-c1cc3c(c(=O)n1C2)COC(=O)[C@]3(O)CC [SN-38]; settings: max 0.3 µM
Summary of the method: as §1

AZD0156 = compound: CN(C)CCCOc1ccc(-c2ccc3ncc4c(c3c2)n(C2CCOCC2)c(=O)n4C)cn1 [AZD0156]; settings: max 3 µM
Summary of the method: as §1

AZD4320 = compound: CN(CC[C@H](CSC1=CC=CC=C1)NC2=C(C=C(C=C2)S(=O)(=O)NC(=O)C3=CC=C(C=C3)N4CCC(CC4)[C@H](C5=CC=CC=C5C6=CC=C(C=C6)Cl)O)S(=O)(=O)C(F)(F)F)CCO [AZD4320]; settings: max 1 µM
Summary of the method: as §1

Alisertib = compound: COc1cc(Nc2ncc3c(n2)-c2ccc(Cl)cc2C(c2c(F)cccc2OC)=NC3)ccc1C(=O)O [Alisertib]; settings: max 10 µM
Summary of the method: as §1

Etoposide = compound: COc1cc([C@@H]2c3cc4c(cc3[C@@H](O[C@@H]3O[C@@H]5CO[C@@H](C)O[C@H]5[C@H](O)[C@H]3O)[C@H]3COC(=O)[C@H]23)OCO4)cc(OC)c1O [Etoposide]; settings: max 10 µM
Summary of the method: as §1

Gefitinib = compound: COc1cc2ncnc(Nc3ccc(F)c(Cl)c3)c2cc1OCCCN1CCOCC1 [Gefitinib]; settings: max 10 µM
Summary of the method: as §1

Prexasertib = compound: COc1cccc(OCCCN)c1-c1cc(Nc2cnc(C#N)cn2)n[nH]1 [Prexasertib]; settings: max 1 µM
Summary of the method: as §1

Doxorubicin = compound: COc1cccc2c1C(=O)c1c(O)c3c(c(O)c1C2=O)C[C@@](O)(C(=O)CO)C[C@@H]3O[C@H]1C[C@H](N)[C@H](O)[C@H](C)O1 [Doxorubicin]; settings: max 1 µM
Summary of the method: as §1

AZD5153 = compound: COc1nnc2ccc(N3CCC(c4ccc(OCCN5CCN(C)C(=O)[C@H]5C)cc4)CC3)nn12 [AZD5153]; settings: max 1 µM
Summary of the method: as §1

Lapatinib = compound: CS(=O)(=O)CCNCc1ccc(-c2ccc3ncnc(Nc4ccc(OCc5cccc(F)c5)c(Cl)c4)c3c2)o1 [Lapatinib]; settings: max 10 µM
Summary of the method: as §1

AZD8186 = compound: C[C@@H](Nc1cc(F)cc(F)c1)c1cc(C(=O)N(C)C)cc2c(=O)cc(N3CCOCC3)oc12 [AZD8186]; settings: max 10 µM
Summary of the method: as §1

Crizotinib = compound: C[C@@H](Oc1cc(-c2cnn(C3CCNCC3)c2)cnc1N)c1c(Cl)ccc(F)c1Cl [Crizotinib]; settings: max 10 µM
Summary of the method: as §1

Savolitinib = compound: C[C@@H](c1ccc2nccn2c1)n1nnc2ncc(-c3cnn(C)c3)nc21 [Savolitinib]; settings: max 1 µM
Summary of the method: as §1

AZD6738 = compound: C[C@@H]1COCCN1C2=NC(=NC(=C2)C3(CC3)[S@](=N)(=O)C)C4=C5C=CNC5=NC=C4 [AZD6738]; settings: max 10 µM
Summary of the method: as §1

AZD5991 = compound: Cc1c2c(nn1C)CSCc1cc(n(C)n1)CSc1cc(c3ccccc3c1)OCCCc1c(C(=O)O)n(C)c3c-2c(Cl)ccc13 [AZD5991]; settings: max 1 µM
Summary of the method: as §1

AZD7648 = compound: Cc1cc2ncnn2cc1Nc1ncc2c(n1)n(C1CCOCC1)c(=O)n2C [AZD7648]; settings: max 10 µM
Summary of the method: as §1

Taselisib = compound: Cc1nc(-c2cn3c(n2)-c2ccc(-c4cnn(C(C)(C)C(N)=O)c4)cc2OCC3)n(C(C)C)n1 [Taselisib]; settings: max 10 µM
Summary of the method: as §1

Selumetinib = compound: Cn1cnc2c(F)c(Nc3ccc(Br)cc3Cl)c(C(=O)NOCCO)cc21 [Selumetinib]; settings: max 10 µM
Summary of the method: as §1

SRA737 = compound: N#Cc1cnc(Nc2cc(NC[C@H]3CNCCO3)c(C(F)(F)F)cn2)cn1 [SRA737]; settings: max 10 µM
Summary of the method: as §1

MK-2206 = compound: NC1(c2ccc(-c3nc4ccn5c(=O)[nH]nc5c4cc3-c3ccccc3)cc2)CCC1 [MK-2206]; settings: max 10 µM
Summary of the method: as §1

Gemcitabine = compound: Nc1ccn([C@@H]2O[C@H](CO)[C@@H](O)C2(F)F)c(=O)n1 [Gemcitabine]; settings: max 0.3 µM
Summary of the method: as §1

[1] = compound: O=C(Nc1ccc2[nH]nc(-c3ccncc3)c2c1)[C@@H]1CCN(CC(=O)N2CCN(c3ccc(-c4ncccn4)cc3)CC2)C1; settings: max 5 µM
Summary of the method: as §1

Olaparib = compound: O=C(c1cc(Cc2n[nH]c(=O)c3ccccc23)ccc1F)N1CCN(C(=O)C2CC2)CC1 [Olaparib]; settings: max 10 µM
Summary of the method: as §1

5-Fluorouracil = compound: O=c1[nH]cc(F)c(=O)[nH]1 [5-Fluorouracil]; settings: max 20 µM
Summary of the method: as §1

Cell Line | IC50, cell viability 72 h (Carboplatin) [µM] | IC50, cell viability 72 h (AZD5363) [µM] | IC50, cell viability 72 h (AZD1775) [µM] | IC50, cell viability 72 h (Trametinib) [µM] | IC50, cell viability 72 h (Paclitaxel) [µM] | IC50, cell viability 72 h (Palbociclib) [µM] | IC50, cell viability 72 h (AZD1390) [µM] | IC50, cell viability 72 h (Venetoclax) [µM] | IC50, cell viability 72 h (Dasatinib) [µM] | IC50, cell viability 72 h (SG3199) [µM] | IC50, cell viability 72 h (AZD2811) [µM] | IC50, cell viability 72 h (SN-38) [µM] | IC50, cell viability 72 h (AZD0156) [µM] | IC50, cell viability 72 h (AZD4320) [µM] | IC50, cell viability 72 h (Alisertib) [µM] | IC50, cell viability 72 h (Etoposide) [µM] | IC50, cell viability 72 h (Gefitinib) [µM] | IC50, cell viability 72 h (Prexasertib) [µM] | IC50, cell viability 72 h (Doxorubicin) [µM] | IC50, cell viability 72 h (AZD5153) [µM] | IC50, cell viability 72 h (Lapatinib) [µM] | IC50, cell viability 72 h (AZD8186) [µM] | IC50, cell viability 72 h (Crizotinib) [µM] | IC50, cell viability 72 h (Savolitinib) [µM] | IC50, cell viability 72 h (AZD6738) [µM] | IC50, cell viability 72 h (AZD5991) [µM] | IC50, cell viability 72 h (AZD7648) [µM] | IC50, cell viability 72 h (Taselisib) [µM] | IC50, cell viability 72 h (Selumetinib) [µM] | IC50, cell viability 72 h (SRA737) [µM] | IC50, cell viability 72 h (MK-2206) [µM] | IC50, cell viability 72 h (Gemcitabine) [µM] | IC50, cell viability 72 h [1] [µM] | IC50, cell viability 72 h (Olaparib) [µM] | IC50, cell viability 72 h (5-Fluorouracil) [µM]
BC-1 (B-Cell Non-Hodgkin's Lymphoma) | > 10 | 4.4 | 0.321 | > 1 | 0.0121 | 0.342 | > 0.3 | > 1 | > 2 | > 0.001 | 0.199 | 0.00532 | 2.42 | > 1 | 0.0653 | 0.77 | 9.56 | 0.013 | 0.05 | 0.0175 | 8.74 | > 10 | 1.69 | > 1 | 2.95 | 0.0872 | > 10 | > 10 | > 10 | 2.7 | 4.1 | 0.0154 | > 5 | > 10 | 17.2
C32 (Melanoma) | > 10 | > 10 | > 3 | 0.00411 | 0.346 | > 10 | > 0.3 | > 1 | > 2 | > 0.001 | > 1 | 0.0617 | > 3 | > 1 | > 10 | > 10 | > 10 | 0.0527 | > 1 | > 1 | > 10 | > 10 | > 10 | > 1 | 8.16 | > 1 | > 10 | > 10 | 0.323 | > 10 | > 10 | 0.0541 | 0.174 | > 10 | > 20
CAL-85-1 (Breast Carcinoma) | > 10 | > 10 | 2.04 | 0.351 | 0.0667 | > 10 | > 0.3 | > 1 | 1.21 | > 0.001 | > 1 | 0.0965 | > 3 | > 1 | > 10 | > 10 | > 10 | > 1 | > 1 | 0.534 | > 10 | > 10 | > 10 | > 1 | > 10 | > 1 | > 10 | 6.29 | > 10 | > 10 | > 10 | 0.246 | > 5 | > 10 | > 20
COR-L105 (Lung Adenocarcinoma) | > 10 | > 10 | 2.08 | 0.244 | > 3 | > 10 | > 0.3 | > 1 | > 2 | > 0.001 | > 1 | > 0.3 | > 3 | > 1 | > 10 | > 10 | 2.49 | > 1 | > 1 | > 1 | 6.66 | > 10 | > 10 | > 1 | > 10 | > 1 | > 10 | 7.36 | > 10 | > 10 | > 10 | > 0.3 | > 5 | > 10 | > 20
GCIY (Gastric Carcinoma) | > 10 | > 10 | > 3 | 0.271 | 0.549 | > 10 | > 0.3 | > 1 | 0.589 | > 0.001 | > 1 | 0.09 | > 3 | > 1 | 1.21 | > 10 | > 10 | 0.0419 | > 1 | > 1 | > 10 | > 10 | > 10 | > 1 | 3.03 | > 1 | > 10 | 0.895 | > 10 | > 10 | > 10 | > 0.3 | > 5 | > 10 | > 20

— the supplement of paper PMC11061612
